# Test results reported in US20150051246A1 (priority 2013, published 2015).
# Key:
# male Wistar rats = experiment: Object recognition task (ORT), scopolamine induced memory deficit; assay type: in vivo
# Experimental: Memory acquisition processes are investigated using the object recognition test (ORT).
# Twenty four 3-4 month old male Wistar rats (Charles River, Sulzfeld, Germany) were used for the study. All animals were housed individually in standard green line Tecniplast IVC cages on stardust bedding. The animals were housed on a reversed 12/12 h light/dark cycle (lights on from 07:00 pm to 07:00 am) and had free access to food and water. The rats were housed and tested in the same room. A radio, playing softly, provided background noise in the room. All testing was performed between 09:00 am and 06:00 pm.
# Drugs were prepared daily, except as indicated otherwise. Roflumilast (Takeda, Konstanz, Germany, MW 403.21) was dissolved in 98% methylcellulose solution (0.5% methylcellulose) and 2% Tween 80. Roflumilast in doses of 0 (vehicle), 0.0001, 0.0003, 0.001, 0.003, 0.01 and 0.03 mg/kg was administered intraperitonally (ip, injection volume 1 ml/kg). […] All compounds were administered 30 min before T1.
# The testing order of conditions was determined randomly. The experimenter was blind of testing protocol. A within design was used and all treatment conditions were balanced over rats. The ORT was performed as described elsewhere (Ennaceur and Delaceur, 1988, Behav Brain Res, Vol 31, pp 47-59; Akkerman et al; 2012, Behav Brain Res, Vol 232, pp 335-347). The apparatus consisted of a circular arena, 83 cm in diameter. The back half of the 40 cm high wall was made of grey PVC and the front was made of transparent PVC. Fluorescent red tubes and a light bulb provided a constant illumination of about 20 lux on the floor of the apparatus. The light intensity was equal in the different parts of the apparatus.
# Two objects were placed in symmetrical positions at the mid-line between the gray and transparent halves of the arena, about ten centimeters away from wall. Four different sets of objects were available: 1) a standard 1 L brown transparent glass bottle (diameter 10 cm, height 22 cm) filled with water, 2) a metal cube (10.0×5.0×7.5 cm) with two holes (diameter 1.9 cm), 3) a cone consisting of a gray PVC base (maximal diameter 18 cm) with a collar on top made of brass (total height 16 cm), and 4) an aluminum cube with a tapering top (13.0×8.0×8.0 cm). Objects were presented to the animals in a balanced manner to avoid object or place biases. Rats were unable to displace the objects.
# A test session comprised two trials, each with durations of 3 min. During the learning trial (T1) the apparatus contains two identical objects (object a1 and a2). Rats were always introduced into the apparatus with their nose towards the transparent wall segment (i.e. facing outwards to the front of the arena). Subsequently, rats were put back in its home cage for a 1 h interval. After the retention interval, rats were put back into the arena for the […] (T2). In T2, the two objects from T1 were replaced by one identical copy (a3) and a different novel object (b). The times spent in exploring each object during T1 and T2 were recorded manually on a personal computer.
# Exploration was defined in the following manner: directing the nose to the object at a distance of no more than 2 cm and/or touching the object with the nose. Sitting on the object was not considered as exploratory behavior. In order to avoid the presence of olfactory cues, the objects were thoroughly cleaned with a 70% ethanol solution before each trial.
# Prior to compound testing, the animals were handled for 5 min on 2 consecutive days and allowed to explore the ORT arena, also for 5 min. Subsequently, the animals were accustomed to the complete ORT testing procedure without receiving any injection.
# The readout parameters of the object recognition task are the times that rats spent on exploring each object during T1 and T2. The exploration time (in seconds) of each object during T1 are presented as “a1” and “a2”.
# [1] = test system: 60 to 80 years old subjects; experiment: Bond-Lader Visual Analogue Scales (BL-VAS) in elderly subjects; assay type: in vivo, human; details: 45 min after the low dose
# Text: Bond-Lader Visual Analogue Scales (BL-VAS): The BL-VAS (Bond A and Lader M, 1974; Br J Med Psycho) Vol 47, pp. 211-218) will be used in order to assess alertness, calmness, and contentedness. BL-VAS consists of 16 100 mm visual analogue scales anchored by antonyms (e.g. Alert-Drowsy, Lethargic-Energetic; etc) and be applied on testing Day 1 and 2 of each treatment period.
# An interim analysis has been performed based on the data of 9 subjects of the Impaired Elderly group and 4 subjects of the Healthy Elderly group. For this purpose, cognitive battery test scores (VLT, SMT, Stroop task and BL-VAS) and concentrations of roflumilast and roflumilast-N-oxide in plasma have been analysed and summarized by dose over each scheduled sampling time using descriptive statistics.
structure (smiles),measurement,setting,value
"O=C(Nc1c(Cl)cncc1Cl)c1ccc(OC(F)F)c(OCC2CC2)c1 [roflumilast, N-(3,5-dichloropyridin-4-yl)-3-cyclopropylmethoxy-4-difluoromethoxybenzamide]",effect on memory performance (in words),"male Wistar rats; 0.0001 mg/kg ip, scopolamine deficit",no effect on memory performance
same,effect on memory performance (in words),"male Wistar rats; 0.0003 mg/kg and 0.001 mg/kg, scopolamine deficit",intermediate memory improvement
same,effect on memory function (in words),"male Wistar rats; doses of 0.003 mg/kg and higher, scopolamine deficit",fully restore memory function
same,d2,"male Wistar rats; rat, in vivo",0.34
same,d2,"male Wistar rats; roflumilast 0.0001 mg/kg ip + scopolamine 0.1 mg/kg, 1 h retention",0.05
same,d2,"male Wistar rats; roflumilast 0.0003 mg/kg ip + scopolamine 0.1 mg/kg, 1 h retention",0.16
same,d2,"male Wistar rats; roflumilast 0.001 mg/kg ip + scopolamine 0.1 mg/kg, 1 h retention",0.27
same,d2,"male Wistar rats; roflumilast 0.003 mg/kg ip + scopolamine 0.1 mg/kg, 1 h retention",0.43
same,d2,"male Wistar rats; roflumilast 0.03 mg/kg ip + scopolamine 0.1 mg/kg, 1 h retention",0.30
same,d2,"male Wistar rats; scopolamine 0.1 mg/kg + roflumilast 0.0001 mg/kg ip, rof + dpz study",0.04
same,effect on memory function (in words),"male Wistar rats; single ip dose 0.003 mg/kg, scopolamine deficit",fully restore spatial memory function
same,effect on memory function (in words),"male Wistar rats; single ip doses 0.01, 0.03, 0.001 and 0.0003 mg/kg",increasingly less efficacy
same,"(subjective) alertness in comparison with placebo, BL-VAS scores",[1],significantly higher (subjective) alertness
